# Measurements published in US20060287247A1, “Halogen-substituted thienyl compounds” (priority 2001, published 2006).
# Like-named read-outs stand apart in the source and are kept apart here.
# Assays:
# C. albicans ATCC 38247 = experiment: NCCLS broth microdilution MIC (antifungal); type: cell-based; details: E = C. albicans ATCC 38247
# Description: (§1) Compounds according to this invention were screened for their in vitro activities against selected species of bacteria and fungi. The minimal inhibition concentration (MIC) of these compounds was determined using the National Committee for Clinical Laboratory Standards (NCCLS) broth microdilution assay in microtiter plates, as set forth in: (1) the guidelines of the National Committee for Clinical Laboratory Standards (NCCLS) Document M7-A4 (NCCLS, 1997); (2) the guidelines of the National Committee for Clinical Laboratory Standards (NCCLS) Document M11-A4 (NCCLS, 1997); and (3) the guidelines and reference method of the National Committee for Clinical Laboratory Standards (NCCLS) Document M27-T (NCCLS, 1995). For antifungal essays, the method recommended in Murray, P R., 1995 Manual of Clinical Microbiology (ASM Press, Washington, D.C.), was employed. […]
# E. coli ATCC 25922 = experiment: NCCLS broth microdilution MIC; type: cell-based; details: for MIC: Escherichia coli
# Description: as §1
# S. pneumoniae ATCC 49619 = experiment: NCCLS broth microdilution MIC; type: cell-based, Streptococcus pneumoniae; details: for MIC: Streptococcus pneumoniae
# Description: as §1
# B. cereus ATCC 11778 = experiment: NCCLS broth microdilution MIC; type: cell-based, Bacillus cereus; details: for MIC: Bacillus cereus
# Description: as §1
# E. faecalis ATCC 29212 = experiment: NCCLS broth microdilution MIC; type: cell-based, Enterococcus faecalis; details: for MIC: Enterococcus faecalis
# Description: as §1
# S. aureus ATCC 29213 = experiment: NCCLS broth microdilution MIC; type: cell-based, Staphylococcus aureus; details: for MIC: Staphylococcus aureus
# Description: as §1
# [1] = ATCC25922, D = E. coli ATCC 25922, read-out: Minimum Inhibitory Concentration (MIC)
# [2] = ATCC49619, F = S. pneumoniae ATCC 49619, read-out: Minimum Inhibitory Concentration (MIC)
# [3] = ATCC11778, C = B. cereus ATCC 11778, read-out: Minimum Inhibitory Concentration (MIC)
# [4] = ATCC29212, B = E. faecalis ATCC 29212, read-out: Minimum Inhibitory Concentration (MIC)
Compound,Minimum Inhibitory Concentration (MIC) (C. albicans ATCC 38247),Minimum Inhibitory Concentration (MIC) (S. pneumoniae ATCC 49619; F = S. pneumoniae ATCC 49619),Minimum Inhibitory Concentration (MIC) (S. aureus ATCC 29213; A = S. aureus ATCC 29213),Minimum Inhibitory Concentration (MIC) (E. faecalis ATCC 29212; B = E. faecalis ATCC 29212),Minimum Inhibitory Concentration (MIC) (E. coli ATCC 25922; D = E. coli ATCC 25922),Minimum Inhibitory Concentration (MIC) (B. cereus ATCC 11778; C = B. cereus ATCC 11778),further results
Cn1cc(NC(=O)c2cc(NC(=O)c3ccc(NC(=O)c4nc(NC(=O)c5sccc5Cl)cn4C)cc3)cn2C)cc1C(=O)NCCN1CCC(F)(F)CC1 [Ih-2],,,,,,,"MIC (C. albicans ATCC 38247; Candida albicans, ATCC38247, read-out: Minimum Inhibitory Concentration (MIC)): > 32 mg/L; MIC (E. coli ATCC 25922; [1]): > 32 mg/L; MIC (S. pneumoniae ATCC 49619; [2]): < 4 mg/L; MIC (B. cereus ATCC 11778; [3]): > 32 mg/L; MIC (E. faecalis ATCC 29212; [4]): < 4 mg/L"
Cn1cc(NC(=O)c2cc(NC(=O)c3cc(NC(=O)c4sccc4Cl)cs3)cn2C)cc1C(=O)NCCN1CCOCC1 [Ig-1],>32 mg/L,++ (++ = MIC between 4 and 12),+++ (+++ = MIC ≦4),+++ (+++ = MIC ≦4),,,
Cc1csc(C(=O)Nc2cc(C(=O)Nc3cc(C(=O)Nc4cc(C(=O)NCCN5CCOCC5)n(C)c4)n(C)c3)n(C)c2)c1Cl [Ie-11],>32 mg/L,+++ (+++ = MIC ≦4),+++ (+++ = MIC ≦4),+++ (+++ = MIC ≦4),>32 mg/L,+++ (+++ = MIC ≦4),
"Cn1cc(NC(=O)c2cc(NC(=O)CNC(=N)N)cn2C)cc1C(=O)NCCC(=N)N [Netropsin, netropsin, reference compound]",,,,,,,"MIC (E. coli ATCC 25922; ATCC25922, read-out: Minimum Inhibitory Concentration (MIC)): < 4 mg/L; MIC (S. pneumoniae ATCC 49619; ATCC49619, read-out: Minimum Inhibitory Concentration (MIC)): < 4 mg/L; MIC (B. cereus ATCC 11778; ATCC11778, read-out: Minimum Inhibitory Concentration (MIC)): < 4 mg/L; MIC (S. aureus ATCC 29213; ATCC29213, read-out: Minimum Inhibitory Concentration (MIC)): < 4 mg/L; MIC (E. faecalis ATCC 29212; ATCC29212, read-out: Minimum Inhibitory Concentration (MIC)): < 4 mg/L"
Cn1cc(NC(=O)c2cc(NC(=O)c3cc(NC(=O)c4sccc4F)cs3)cn2C)cc1C(=O)NCCN1CCOCC1 [Ig-5],>32 mg/L,+++ (+++ = MIC ≦4),+++ (+++ = MIC ≦4),+++ (+++ = MIC ≦4),,,
Cn1cc(NC(=O)c2cc(NC(=O)c3cc(NC(=O)c4scc(Br)c4Cl)cn3C)cn2C)cc1C(=O)NCCN1CCCCC1 [Ie-15],"+ (+ = MIC from 12 to 32, inclusive)",+++ (+++ = MIC ≦4),,+++ (+++ = MIC ≦4),"+ (+ = MIC from 12 to 32, inclusive)",+++ (+++ = MIC ≦4),
Cn1cc(NC(=O)c2cc(NC(=O)c3cc(NC(=O)c4scc(Br)c4Cl)cn3C)cn2C)cc1C(=O)NCCN1CCSCC1 [Ie-14],>32 mg/L,+++ (+++ = MIC ≦4),,+++ (+++ = MIC ≦4),>32 mg/L,+++ (+++ = MIC ≦4),
Cn1cc(NC(=O)c2cc(NC(=O)c3nc(NC(=O)c4scc(Br)c4Cl)cn3C)cn2C)cc1C(=O)NCCN1CCSCC1 [Ig-10],>32 mg/L,+++ (+++ = MIC ≦4),,+++ (+++ = MIC ≦4),>32 mg/L,+++ (+++ = MIC ≦4),
Cn1cc(NC(=O)c2cc(NC(=O)c3cc(NC(=O)c4cc(Br)cs4)cn3C)cn2C)cc1C(=O)NCCN1CCOCC1 [Ie-3],>32 mg/L,+++ (+++ = MIC ≦4),++ (++ = MIC between 4 and 12),>32 mg/L,,,
CC(C)S(=O)(=O)c1csc(C(=O)Nc2csc(C(=O)Nc3cc(C(=O)Nc4cc(C(=O)NCCN5CCOCC5)n(C)c4)n(C)c3)c2)c1Cl [Ig-4],>32 mg/L,+++ (+++ = MIC ≦4),+++ (+++ = MIC ≦4),+++ (+++ = MIC ≦4),,,
Cn1cc(NC(=O)c2cc(NC(=O)c3cc(NC(=O)c4sccc4Br)cn3C)cn2C)cc1C(=O)NCCN1CCOCC1 [Ie-2],>32 mg/L,+++ (+++ = MIC ≦4),+++ (+++ = MIC ≦4),+++ (+++ = MIC ≦4),,,
Cn1cc(NC(=O)c2cc(NC(=O)c3cc(NC(=O)c4sccc4Cl)cn3CCCO)cn2C)cc1C(=O)NCCC(=O)NCCN1CCOCC1 [Ig-2],>32 mg/L,>32 mg/L,>32 mg/L,>32 mg/L,,,
Cn1cc(NC(=O)c2cc(NC(=O)c3cc(NC(=O)c4sccc4Cl)cn3C)cn2C)cc1C(=O)NCCN1CCC(F)CC1 [Ie-13],>32 mg/L,+++ (+++ = MIC ≦4),,+++ (+++ = MIC ≦4),>32 mg/L,+++ (+++ = MIC ≦4),
"CC1COc2c(N3CCN(C)CC3)c(F)cc3c(=O)c(C(=O)O)cn1c23 (stereo not shown) [Ofloxacin, reference compound]",,,,,,,"MIC (E. coli ATCC 25922; [1]): < 4 mg/L; MIC (S. pneumoniae ATCC 49619; [2]): < 4 mg/L; MIC (B. cereus ATCC 11778; [3]): < 4 mg/L; MIC (S. aureus ATCC 29213; ATCC29213, A = S. aureus ATCC 29213, read-out: Minimum Inhibitory Concentration (MIC)): < 4 mg/L; MIC (E. faecalis ATCC 29212; [4]): 4 to 12 mg/L"
Cn1cc(NC(=O)c2cc(NC(=O)c3cc(NC(=O)c4cc(NC(=O)c5sccc5Cl)cn4C)cn3C)cn2C)cc1C(=O)NCCN1CCOCC1 [Ie-12],>32 mg/L,+++ (+++ = MIC ≦4),,+++ (+++ = MIC ≦4),>32 mg/L,+++ (+++ = MIC ≦4),

# Continued, in another order:
Minimum Inhibitory Concentration (MIC) (C. albicans ATCC 38247),Minimum Inhibitory Concentration (MIC) (S. pneumoniae ATCC 49619; F = S. pneumoniae ATCC 49619),Minimum Inhibitory Concentration (MIC) (S. aureus ATCC 29213; A = S. aureus ATCC 29213),Minimum Inhibitory Concentration (MIC) (E. faecalis ATCC 29212; B = E. faecalis ATCC 29212),Minimum Inhibitory Concentration (MIC) (E. coli ATCC 25922; D = E. coli ATCC 25922),Minimum Inhibitory Concentration (MIC) (B. cereus ATCC 11778; C = B. cereus ATCC 11778),Compound,further results
>32 mg/L,+++ (+++ = MIC ≦4),>32 mg/L,+++ (+++ = MIC ≦4),>32 mg/L,>32 mg/L,Cn1cc(NC(=O)c2cc(NC(=O)CCNC(=O)c3cc(NC(=O)c4cc(NC(=O)c5cc(Br)c(Br)s5)cn4C)cn3C)cn2C)cc1C(=O)NCCC(=O)NCCCCN [Id-8],
>32 mg/L,>32 mg/L,>32 mg/L,>32 mg/L,>32 mg/L,>32 mg/L,CN(C)CCCNC(=O)CCNC(=O)c1cc(NC(=O)c2cc(NC(=O)c3cc(NC(=O)c4nc(NC(=O)CCCNC(=O)c5cc(NC(=O)c6cc(NC(=O)c7cc(NC(=O)c8cc(Br)c(Br)s8)cn7C)cn6C)cn5C)cn4C)cn3C)cn2C)cn1C [If-1],
>32 mg/L,+++ (+++ = MIC ≦4),>32 mg/L,>32 mg/L,>32 mg/L,>32 mg/L,Cn1cc(NC(=O)c2cc(NC(=O)CCNC(=O)c3cc(NC(=O)c4cc(NC(=O)c5ccc(Br)s5)cn4C)cn3C)cn2C)cc1C(=O)NCCC(=O)NCC(C)(C)CN [Id-20],
>32 mg/L,>32 mg/L,>32 mg/L,>32 mg/L,,,CN(C)CCCNC(=O)CCNC(=O)c1cc(NC(=O)c2cc(NC(=O)CCNC(=O)c3cc(NC(=O)c4ccc(Cl)s4)cn3C)cn2C)cn1C [Id-29],
>32 mg/L,>32 mg/L,>32 mg/L,>32 mg/L,>32 mg/L,>32 mg/L,Cn1cc(NC(=O)c2cc(NC(=O)c3cc(NC(=O)c4ccc(Br)s4)cn3C)cn2C)cc1C(=O)NCCCC(=O)Nc1cn(C)c(C(=O)Nc2cc(C(=O)Nc3cc(C(=O)Nc4cc(C(=O)NCCC(=O)NCCCN5CCNCC5)n(C)c4)n(C)c3)n(C)c2)n1 [If-2],
>32 mg/L,+++ (+++ = MIC ≦4),+++ (+++ = MIC ≦4),"+ (+ = MIC from 12 to 32, inclusive)",,,CN(C)CCCNC(=O)CCNC(=O)c1cc(NC(=O)c2cc(NC(=O)CCNC(=O)c3cc(NC(=O)c4cscc4Cl)cn3C)cn2C)cn1C [Id-28],
>32 mg/L,"+ (+ = MIC from 12 to 32, inclusive)",>32 mg/L,>32 mg/L,,,CN(C)CCCNC(=O)CCNC(=O)c1cc(NC(=O)c2cc(NC(=O)CCNC(=O)c3cc(NC(=O)c4cc(NC(=O)c5sc(Br)c(Br)c5Cl)cn4C)cn3C)cn2C)cn1C [Id-26],
